“Also recorded” adds a separate entry of the source. Like-named read-outs stand apart in the source and are kept apart here.
Tests used:
[1] = biological target: T1, Human monoamine oxidase A (Homo sapiens, UniProt P21397); experiment: Kinetic analysis of MAO-A inhibition (KM, Vmax, apparent Ki); format: biochemical; conditions: for Ki: apparent Ki, mean ± SE (n); for Note: type of inhibition approached (MAO-A): for mixed inhibitors; for Inhibition Type (MAO-A): kynuramine 25–150 µM, two fixed inhibitor concentrations
T1 construct: purchased Sigma-Aldrich (Milan, Italy)
T1 sequence (P21397 1-527): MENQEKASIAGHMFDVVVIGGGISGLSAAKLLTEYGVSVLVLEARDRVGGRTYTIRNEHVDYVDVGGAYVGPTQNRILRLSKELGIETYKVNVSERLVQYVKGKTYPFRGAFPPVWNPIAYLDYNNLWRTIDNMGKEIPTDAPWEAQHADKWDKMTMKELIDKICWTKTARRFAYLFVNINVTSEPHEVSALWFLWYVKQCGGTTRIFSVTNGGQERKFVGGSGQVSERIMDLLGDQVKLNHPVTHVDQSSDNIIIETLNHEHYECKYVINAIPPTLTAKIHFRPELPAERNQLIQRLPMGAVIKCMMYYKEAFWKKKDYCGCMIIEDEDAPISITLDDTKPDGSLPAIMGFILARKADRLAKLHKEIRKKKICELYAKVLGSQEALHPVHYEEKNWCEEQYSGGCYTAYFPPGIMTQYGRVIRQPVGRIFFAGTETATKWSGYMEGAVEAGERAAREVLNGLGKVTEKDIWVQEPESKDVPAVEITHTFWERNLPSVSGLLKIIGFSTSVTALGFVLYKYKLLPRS
Description: (§1) Monoamine oxidase activity was assayed by the fluorimetric method, as previously reported. This method, based on the monoamine oxidase oxidation of its non-selective substrate kynuramine, led to the production of […], which becomes fluorescent in alkaline conditions. In steady-state measurements of MAO activity, the reaction mixture (250 µL), prepared in a 50 mM potassium phosphate buffer, pH 7.1 (buffer A), contained 40 μM kynuramine in the absence or presence of the indicated concentration of the inhibitor. The DMSO concentration carried over by the inhibitor was 0.5% (v/v), and an identical concentration of DMSO was used in the absence of the inhibitor. The reaction started with the addition of 3.75 μg monoamine oxidase A or B and lasted 20 min. The reaction was stopped by adding 150 μL of 2 M NaOH and, after 10 min of incubation at room temperature, 240 μL of water. After centrifugation (10 min at 15,000 rpm), the fluorescence signal was measured on 500 μL of supernatant using a Cary Eclipse Spectrofluorimeter (Agilent Technologies, Milan, Italy) at room temperature (20–25 °C). Excitation and emission wavelengths of 315 and 380 nm, respectively, were employed; slits were set to 10 nm for both the excitation and emission beams.
(§2) The kinetic parameters KM and Vmax for MAO and XO substrates were obtained through kinetic measurements of these activities performed at different substrate concentrations, either in the absence or in the presence of two fixed concentrations of the various inhibitors. […] Each assay was realized as reported above, and the values of the initial velocity (vi) of the reaction were evaluated under the various experimental conditions. The data of vi were nonlinearly fitted according to the Michaelis–Menten equation or analyzed by the Lineweaver–Burk equation in order to derive the kinetic parameters in the absence (KM and Vmax) or in the presence (K’M and V’max) of the inhibitor.
(§3) The inhibition power of the various compounds and their inhibition mechanisms were evaluated. […] However, an apparent inhibition constant (K’i) was calculated at each inhibitor concentration using the equations hereafter reported, depending on the type of inhibition tentatively approached from the experimental data:K’i = V’max × [I]/(Vmax − V’max)(1) K’i = KM × [I]/(K’M − KM)(2) K’i = K’M × [I]/(KM − K’M)(3)
(§4) The K’i values obtained at different inhibitor concentrations were then averaged to obtain a unique value of apparent Ki for each compound.

[2] = biological target: T2, bovine milk xanthine oxidase (Bos taurus, UniProt P80457); experiment: Steady-state xanthine oxidase activity, spectrophotometric assay; format: biochemical; conditions: for IC50: read-out: IC50 XO inhibition; for Inhibition of XO activity (in words): steady-state, concentration series
T2 construct: bovine milk xanthine oxidase; purchased Sigma-Aldrich (Milan, Italy); host or cells: bovine milk
T2 sequence (P80457 whole entry): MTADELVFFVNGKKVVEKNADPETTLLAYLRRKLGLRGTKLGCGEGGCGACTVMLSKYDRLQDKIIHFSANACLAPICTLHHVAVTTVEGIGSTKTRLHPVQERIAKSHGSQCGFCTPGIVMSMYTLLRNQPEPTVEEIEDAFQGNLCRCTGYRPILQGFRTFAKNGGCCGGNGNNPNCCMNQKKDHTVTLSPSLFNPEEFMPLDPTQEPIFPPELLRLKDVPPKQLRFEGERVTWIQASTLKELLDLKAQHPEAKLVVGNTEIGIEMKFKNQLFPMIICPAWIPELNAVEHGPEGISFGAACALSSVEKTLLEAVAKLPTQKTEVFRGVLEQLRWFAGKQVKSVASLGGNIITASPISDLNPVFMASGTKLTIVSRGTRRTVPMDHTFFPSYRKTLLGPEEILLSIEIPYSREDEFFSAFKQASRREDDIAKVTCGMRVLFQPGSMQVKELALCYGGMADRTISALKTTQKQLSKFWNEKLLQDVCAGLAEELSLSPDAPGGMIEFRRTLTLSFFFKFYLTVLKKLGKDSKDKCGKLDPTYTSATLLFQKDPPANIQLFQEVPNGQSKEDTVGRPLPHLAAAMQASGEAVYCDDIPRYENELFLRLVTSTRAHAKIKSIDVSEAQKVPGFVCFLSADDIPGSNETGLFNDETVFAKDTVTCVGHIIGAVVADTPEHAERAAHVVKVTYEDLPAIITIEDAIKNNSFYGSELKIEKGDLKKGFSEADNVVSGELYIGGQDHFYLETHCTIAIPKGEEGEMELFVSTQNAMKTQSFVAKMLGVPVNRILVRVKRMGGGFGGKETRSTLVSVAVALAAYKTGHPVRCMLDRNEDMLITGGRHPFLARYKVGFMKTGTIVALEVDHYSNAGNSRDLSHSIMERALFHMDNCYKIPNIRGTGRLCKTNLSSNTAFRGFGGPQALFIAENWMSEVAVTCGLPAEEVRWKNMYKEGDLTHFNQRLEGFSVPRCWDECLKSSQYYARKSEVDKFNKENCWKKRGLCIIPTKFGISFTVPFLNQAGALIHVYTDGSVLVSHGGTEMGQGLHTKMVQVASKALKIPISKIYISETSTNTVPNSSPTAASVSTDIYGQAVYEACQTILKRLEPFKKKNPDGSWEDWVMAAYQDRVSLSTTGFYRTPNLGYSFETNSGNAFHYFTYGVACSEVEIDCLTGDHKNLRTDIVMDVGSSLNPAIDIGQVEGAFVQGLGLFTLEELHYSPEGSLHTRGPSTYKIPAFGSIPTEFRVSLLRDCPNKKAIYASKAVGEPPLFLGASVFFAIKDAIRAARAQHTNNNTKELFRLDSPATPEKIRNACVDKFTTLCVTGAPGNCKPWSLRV
Description: Xanthine oxidase activity was assayed through a spectrophotometric method, essentially as previously reported. […] The DMSO concentration carried over by the inhibitor was 1% (v/v), and an identical concentration of DMSO was used in the absence of the inhibitor. The reaction started with the addition of XO and was followed kinetically for up to 30 s. The initial rate of uric acid formation was expressed as ΔE/min. The effect of each inhibitor in the XO assay was evaluated, and the data were treated as previously indicated for the MAO assay, including the extrapolation of the IC50 values.

[3] = biological target: T3, Human monoamine oxidase B (Homo sapiens, UniProt P27338); experiment: Kinetic analysis of MAO-B inhibition (KM, Vmax, apparent Ki); format: biochemical; conditions: for Ki: apparent Ki, mean ± SE (n); for Note: type of inhibition approached (MAO-B): for mixed inhibitors; for Inhibition Type (MAO-B): kynuramine 25–150 µM, two fixed inhibitor concentrations
T3 construct: purchased Sigma-Aldrich (Milan, Italy)
T3 sequence (P27338 1-520): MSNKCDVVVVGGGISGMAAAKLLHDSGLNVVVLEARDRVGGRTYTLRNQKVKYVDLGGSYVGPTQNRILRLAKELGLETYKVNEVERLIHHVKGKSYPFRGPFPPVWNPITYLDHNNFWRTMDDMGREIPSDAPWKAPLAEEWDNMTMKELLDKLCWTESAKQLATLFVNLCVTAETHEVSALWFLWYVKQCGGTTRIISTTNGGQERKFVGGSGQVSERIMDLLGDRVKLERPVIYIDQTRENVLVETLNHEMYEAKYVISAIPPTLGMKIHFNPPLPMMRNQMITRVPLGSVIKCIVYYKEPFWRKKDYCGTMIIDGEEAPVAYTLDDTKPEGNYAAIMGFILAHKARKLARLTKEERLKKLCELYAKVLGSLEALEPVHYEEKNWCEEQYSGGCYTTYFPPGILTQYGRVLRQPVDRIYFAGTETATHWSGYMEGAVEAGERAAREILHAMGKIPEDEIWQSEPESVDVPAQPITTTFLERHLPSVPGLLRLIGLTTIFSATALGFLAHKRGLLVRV
Description: as §1, §2, §3, §4

[4] = biological target: T3, Human monoamine oxidase B; experiment: Steady-state MAO-B activity, fluorimetric kynuramine assay; format: biochemical; conditions: 40 μM kynuramine, 20 min, pH 7.1; mean ± SD (n); from semilogarithmic plot
Description: as §1

[5] = biological target: T1, Human monoamine oxidase A; experiment: Steady-state MAO-A activity, fluorimetric kynuramine assay; format: biochemical; conditions: 40 μM kynuramine, 20 min, pH 7.1; mean ± SD (n); from semilogarithmic plot
Description: as §1, with “The reaction started with the addition of 3.75 μg monoamine oxidase A or B and lasted 20 min.” left out, “°C).” for “°C). Excitation and emission wavelengths of 315 and 380 nm, respectively, were employed; slits were set to 10 nm for both the excitation and emission beams.”

MAO-A = test system: MAO-A; parameters: method as in PMID 24140951; conditions: control of MAO-A inhibition; cited from earlier work
[6] = biological target: T2, bovine milk xanthine oxidase; experiment: Kinetic analysis of xanthine oxidase inhibition; format: biochemical
Description: Xanthine oxidase activity was assayed through a spectrophotometric method, essentially as previously reported. In particular, the oxidation of xanthine to uric acid catalyzed by XO was monitored with a Cary 100 UV-Vis Spectrophotometer (Agilent Technologies, Milan, Italy) at 25 °C, thanks to the increase in absorbance at 295 nm due to uric acid formation. In steady-state measurements of XO activity, the assay was carried out in a 500-μL final volume reaction mixture containing 100 mM phosphate buffer, pH 7.8 plus 0.1 mM EDTA (buffer B), 75 μM xanthine, and different concentrations of the various inhibitors. The DMSO concentration carried over by the inhibitor was 1% (v/v), and an identical concentration of DMSO was used in the absence of the inhibitor. The reaction started with the addition of XO and was followed kinetically for up to 30 s. The initial rate of uric acid formation was expressed as ΔE/min. The effect of each inhibitor in the XO assay was evaluated, and the data were treated as previously indicated for the MAO assay, including the extrapolation of the IC50 values.
as §2
The inhibition power of the various compounds and their inhibition mechanisms were evaluated. […]

XO = test system: XO; parameters: method as in PMID 16450295; conditions: cited from earlier work
[7] = read-out: Ki, Calculated from KM Increase (MAO-A)
[8] = 75 μM xanthine, pH 7.8, 25 °C, mean ± SE (n), extrapolated from semilogarithmic plot
[9] = read-out: Ki, Calculated from KM Increase (MAO-B)
[10] = uncompetitive, read-out: Ki, average value from Vmax or KM decrease (MAO-B)

Row | Structure (SMILES) | Ki [1, 7] | Note: type of inhibition approached (MAO-A) [1] | Inhibition Type (MAO-A) [1] | IC50 [2, 8] | Ki [3, 9] | Note: type of inhibition approached (MAO-B) [3] | Inhibition Type (MAO-B) [3] | IC50 [4] | IC50 [5] | also measured
1 | COc1cc(CCOC(=O)C2CCN(Cc3ccccc3)CC2)ccc1O [HT3, 4-hydroxy-3-methoxyphenethyl 1-benzylpiperidine-4-carboxylate] | 7.6 ± 3.7 µM | approaching competitive | mixed | 361 ± 1 µM | 115 ± 50 µM | approaching competitive | mixed | 171 ± 44 µM | 23.4 ± 6.3 µM | –
2 | C#CCN(C)CCCOc1ccc(Cl)cc1Cl [Clorgyline, clorgyline] | – | – | – | – | – | – | – | – | – | Inhibition Type (MAO-A) (MAO-A): Inactivator [52]
3 | O=C(OCCc1cc(O)c(O)cc1[N+](=O)[O-])C1CCN(Cc2ccccc2)CC1 [HT2, 4,5-dihydroxy-2-nitrophenethyl 1-benzylpiperidine-4-carboxylate] | – | – | noncompetitive | 109 ± 20 µM | – | – | uncompetitive | 184 ± 48 µM | 322 ± 58 µM | Ki ([1]; read-out: Ki, Calculated from Vmax Decrease (MAO-A)): 398 ± 56 µM; Inhibition of XO activity (in words) [2]: clearly evident concentration-dependent inhibition; Ki [3, 10]: 186 ± 98 µM; Note: type of inhibition approached (XO) [6]: approaching competitive; Ki ([6]; apparent Ki, mean ± SE (n), read-out: Ki Calculated from KM Increase (XO)): 63 ± 8 µM; Inhibition Type (XO) ([6]; xanthine 4–30 µM, 75 or 100 µM HT2): mixed-type
4 | Oc1ncnc2[nH]ncc12 [Allopurinol, allopurinol] | – | – | – | – | – | – | – | – | – | Inhibition Type (XO) (XO): Competitive [53]; Ki (XO): 1.8 µM
5 | CC(=O)Oc1ccc(CCOC(=O)C2CCN(Cc3ccccc3)CC2)cc1OC(C)=O [HT1a] | 36.5 ± 13.2 µM | approaching competitive | mixed | – | 37.9 ± 13.1 µM | approaching competitive | mixed | 85 ± 33 µM | 50.8 ± 11 µM | IC50 XO inhibition [2, 8]: no inhibition; Inhibition of XO activity (in words) [2]: almost ineffective; also recorded: essentially no inhibition
6 | COc1cc2c(cc1OC)C(=O)C(CC1CCN(Cc3ccccc3)CC1)C2 (stereo not drawn) [Donepezil, donepezil, reference compound] | – | approaching noncompetitive | mixed | – | – | approaching competitive | mixed | – | – | –
7 | CC(=O)Oc1ccc(CCOC(=O)C2CCN(Cc3ccccc3)CC2)cc1 [HT4a] | 15.6 ± 4.2 µM | approaching competitive | mixed | 438 ± 6 µM | 20.7 ± 2.8 µM | – | competitive | 86 ± 24 µM | 57 ± 18.2 µM | –
8 | COc1cc(CCOC(=O)C2CCN(Cc3ccccc3)CC2)ccc1OC(C)=O [HT3a] | – | – | uncompetitive | 282 ± 37 µM | 190 ± 37 µM | approaching competitive | mixed | 174 ± 80 µM | 44.3 ± 14.4 µM | Ki ([1]; uncompetitive, read-out: Ki, average value from Vmax or KM decrease (MAO-A)): 80.5 ± 30.4 µM
9 | O=C(OCCc1ccc(O)c(O)c1)C1CCN(Cc2ccccc2)CC1 [HT1, 3,4-dihydroxyphenetyl 1-benzylpiperidine-4-carboxylate] | 39.7 ± 14.3 µM | approaching competitive | mixed | 454 ± 22 µM | 163 ± 28 µM | – | competitive | 125 ± 28 µM | 54.1 ± 6.9 µM | –
10 | O=C(OCCc1ccc(O)cc1)C1CCN(Cc2ccccc2)CC1 [HT4, 4-hydroxyphenethyl 1-benzylpiperidine-4-carboxylate] | 6.1 ± 1.6 µM | approaching competitive | mixed | 605 ± 35 µM | – | – | uncompetitive | 106 ± 22 µM | 14.3 ± 2.2 µM | Ki [3, 10]: 128 ± 45 µM

Reference: publication PMC10819651 (Molecules, 2024)
